Data published in patent publication EP0082266A1, “Substituted 1,5-diaminopentanes, their preparation and pharmaceutical compositions containing them” (BASF Aktiengesellschaft, priority 1981, dated 1983).
Where a name gives a salt, the structure may show the parent alone.

Assays:
[1] = system: Aconitinarrhythmie der Ratte; assay: Antiarrhythmic activity, aconitine-induced arrhythmia in the anaesthetised rat (oral dosing, aconitine i.v. infusion 60 min later); format: in vivo, Ratten (Stamm: Sprague Dawley); details: for ED50: Rattus norvegicus, po, 1 h, read-out: Wirksame Dosis ED 50 %; for R.W. = Relative Wirksamkeit, bezogen auf Chinidin = 1,00 / Maximale Wirkung Δ % (Verlängerung der Aconitinfusionsdauer): rat, per os; for R.W. = Relative Wirksamkeit, bezogen auf Chinidin = 1,00: relative potency from ED 50 %; for Maximale Wirkung Δ % (Verlängerung der Aconitinfusionsdauer): effect of the maximal tolerated dose
Procedure: Zur Bestimmung der antiarrhythmischen Wirksamkeit werden die Substanzen Ratten (Stamm: Sprague Dawley, Gewicht 200 bis 250 g) oral appliziert. 45 min später werden die Tiere mit Thiobutabarbital-Natrium (100,0 mg/kg i.p.) narkotisiert. Als arrhythmogene Substanz dient Aconitin, das 60 min nach Substanzapplikation i.v. infundiert wird (Dosierungsgeschwindigkeit: 0,005 mg/kg x min). Bei nicht behandelten Tieren (N = 52) treten nach 2,74 + 0,07 min im EKG Arrhythmien auf, deren Eintritt durch Antiarrhythmika dosisabhängig verzögert werden kann.
Aus den linearen Beziehungen zwischen log Dosis (mg/kg) der Prüfsubstanzen und der relativen Verlängerung der Aconitin--Infusionsdauer (Δ%) wird die Dosis bestimmt, welche die Infusionsdauer um 50 % verlängert (ED 50 %).
(§1) Zur weiteren Charakterisierung der Substanzen wird aus der in den Experimenten verwendeten dezimalgeometrischen Dosenfolge (Faktor [formula] ) die antiarrhythmische Wirkung der maximal tolerierten Dosis bestimmt.

[2] = Acute toxicity / tolerability in the rat after oral dosing (toxic symptoms: changes of baseline ECG, cyanosis, convulsions); format: in vivo; details: in vivo, po; for MTD: per os, highest tolerated dose, at which the maximal effect was read, read-out: Maximale Wirkung Dosis (maximal tolerierte Dosis); for selectivity ratio: read-out: Q = Toxische Dosis / ED 50 %
Text: as §1
(§2) Ferner wird die Dosis ermittelt, bei welcher toxische Symptome (Veränderungen des Ausgangs-EKG, Cyanose, Krämpfe) auftreten.

Ratte = assay: as above; format: in vivo; details: per os; for Toxizität Dosis: dose after which the first toxic symptoms are observed
Text: as §1, §2

CC(C)C(CN)(CCCN(C)CCc1ccccc1)c1ccccc1 (stereo not drawn) [Beispiel 1, 1-Amino-2-isopropyl-2-phenyl-5-(phenethyl)methylamino-pentan]
ED50 [1]: 29.4 mg/kg | R.W. = Relative Wirksamkeit, bezogen auf Chinidin = 1,00 [1]: 1,48

CC(C)C(CN)(CCCNCCc1ccccc1)c1ccccc1.Cl.Cl (stereo not drawn) [Beispiel 6, 1-Amino-2-isopropyl-2-phenyl-5-(phenethyl)amino--pentan-dihydrochlorid]
ED50 [1]: 21.6 mg/kg | R.W. = Relative Wirksamkeit, bezogen auf Chinidin = 1,00 [1]: 2,01

CCNCC(CCCN(C)CCc1ccccc1)(c1ccccc1)C(C)C (stereo not drawn) [Beispiel 9, 1-Ethylamino-2-isopropyl-2-phenyl-5-(phenethyl)-methyl-amino-pentan-dihydrochlorid]
ED50 [1]: 11.8 mg/kg | R.W. = Relative Wirksamkeit, bezogen auf Chinidin = 1,00 [1]: 3,69

CCCNCC(CCCN(C)CCc1ccccc1)(c1ccccc1)C(C)C (stereo not drawn) [Beispiel 10, 1-(n-Propyl)amino-2-isopropyl-2-phenyl-5-(phenethyl)-methylamino-pentan-dihydrochlorid]
ED50 [1]: 11.8 mg/kg | Maximale Wirkung Δ % (Verlängerung der Aconitinfusionsdauer) [1]: 243% | R.W. = Relative Wirksamkeit, bezogen auf Chinidin = 1,00 [1]: 3,69 | MTD [2]: 100 mg/kg | selectivity ratio [2]: 18 | Toxizität Dosis (Ratte): 215 mg/kg

CC(C)NCC(CCCN(C)CCc1ccccc1)(c1ccccc1)C(C)C (stereo not drawn) [Beispiel 11, 1-Isopropylamino-2-isopropyl-2-phenyl-5-(phenethyl)-methylamino-pentan-dihydrochlorid]
ED50 [1]: 6.42 mg/kg

CCCCNCC(CCCN(C)CCc1ccccc1)(c1ccccc1)C(C)C (stereo not drawn) [Beispiel 12, 1-(n-Butyl)amino-2-isopropyl-2-phenyl-5-(phenethyl)-methylamino-pentan-dihydrochlorid]
ED50 [1]: 22.5 mg/kg | R.W. = Relative Wirksamkeit, bezogen auf Chinidin = 1,00 [1]: 1,93

CCC(C)NCC(CCCN(C)CCc1ccccc1)(c1ccccc1)C(C)C (stereo not drawn) [Beispiel 13, 1-(sec-Butyl)amino-2-isopropyl-2-phenyl-5-(phenethyl)-methylamino-pentan-dihydrochlorid]
ED50 [1]: 12.9 mg/kg | Maximale Wirkung Δ % (Verlängerung der Aconitinfusionsdauer) [1]: 237% | R.W. = Relative Wirksamkeit, bezogen auf Chinidin = 1,00 [1]: 3,37 | MTD [2]: 100 mg/kg | selectivity ratio [2]: 17 | Toxizität Dosis (Ratte): 215 mg/kg

CC(C)CNCC(CCCN(C)CCc1ccccc1)(c1ccccc1)C(C)C (stereo not drawn) [Beispiel 14, 1-Isobutylamino-2-isopropyl-2-phenyl-5-(phenethyl)-methylamino-pentan-dihydrochlorid]
ED50 [1]: 14.3 mg/kg | Maximale Wirkung Δ % (Verlängerung der Aconitinfusionsdauer) [1]: 287% | R.W. = Relative Wirksamkeit, bezogen auf Chinidin = 1,00 [1]: 3,04 | MTD [2]: 100 mg/kg | selectivity ratio [2]: 15 | Toxizität Dosis (Ratte): 215 mg/kg

CCNCC(CCCN(C)CCc1ccc(OC)c(OC)c1)(c1ccc(OC)c(OC)c1)C(C)C (stereo not drawn) [Beispiel 15, 1-Ethylamino-2-isopropyl-2-(3,4-dimethoxyphenyl)-5--[(3,4-dimethoxyphenethyl)methylamino]-pentan-dihydrochlorid]
ED50 [1]: 17.1 mg/kg | R.W. = Relative Wirksamkeit, bezogen auf Chinidin = 1,00 [1]: 2,54

COc1ccc(CCN(C)CCCC(CNC(C)C)(c2ccc(OC)c(OC)c2)C(C)C)cc1OC (stereo not drawn) [Beispiel 17, 1-Isopropylamino-2-isopropyl-2-(3,4-dimethoxyphenyl)-5--[(3,4-dimethoxyphenethyl)methylamino]-pentan-dihydrochlorid]
ED50 [1]: 26.1 mg/kg | R.W. = Relative Wirksamkeit, bezogen auf Chinidin = 1,00 [1]: 1,67

CCNCC(CCCN(C)CCc1ccc(OC)c(OC)c1)(c1cc(OC)c(OC)c(OC)c1)C(C)C (stereo not drawn) [Beispiel 20, 1-Ethylamino-2-isopropyl-2-(3,4,5-trimethoxyphenyl)-5--[(3,4-dimethoxyphenethyl)methylamino]-pentan-dihydrochlorid]
ED50 [1]: 12.3 mg/kg | Maximale Wirkung Δ % (Verlängerung der Aconitinfusionsdauer) [1]: 224% | R.W. = Relative Wirksamkeit, bezogen auf Chinidin = 1,00 [1]: 3,54 | MTD [2]: 215 mg/kg | selectivity ratio [2]: 38 | Toxizität Dosis (Ratte): 464 mg/kg

CCCNCC(CCCN(C)CCc1ccc(OC)c(OC)c1)(c1cc(OC)c(OC)c(OC)c1)C(C)C (stereo not drawn) [Beispiel 21, 1-(n-Propyl)amino-2-isopropyl-2-(3,4,5-trimethoxyphenyl)-5-[(3,4-dimethoxyphenethyl)methylamino]--pentan-dihydrochlorid]
ED50 [1]: 23.4 mg/kg | R.W. = Relative Wirksamkeit, bezogen auf Chinidin = 1,00 [1]: 1,86

COc1ccc(CCN(C)CCCC(CNC(C)C)(c2cc(OC)c(OC)c(OC)c2)C(C)C)cc1OC (stereo not drawn) [Beispiel 22, 1-Isopropylamino-2-isopropyl-2-(3,4,5-trimethoxyphenyl)-5-[(3,4-dimethoxyphenethyl)methylamino]--pentan-dihydrochlorid]
ED50 [1]: 24.8 mg/kg | R.W. = Relative Wirksamkeit, bezogen auf Chinidin = 1,00 [1]: 1,75

CCCCNCC(CCCN(C)CCc1ccc(OC)c(OC)c1)(c1cc(OC)c(OC)c(OC)c1)C(C)C (stereo not drawn) [Beispiel 23]
ED50 [1]: 33.8 mg/kg

CCC(C)NCC(CCCN(C)CCc1ccc(OC)c(OC)c1)(c1cc(OC)c(OC)c(OC)c1)C(C)C (stereo not drawn) [Beispiel 24]
ED50 [1]: 17 mg/kg | R.W. = Relative Wirksamkeit, bezogen auf Chinidin = 1,00 [1]: 2,56

CCCCNCC(CCCN(C)CCc1ccc(OC)c(OC)c1)(c1ccc(Cl)cc1)C(C)C (stereo not drawn) [Beispiel 27, 1-(n-Butyl)amino-2-isopropyl-2-(4-chlorphenyl)--5-[(3,4-dimethoxyphenethyl)methylamino]-pentan--dihydrochlorid]
ED50 [1]: 21.5 mg/kg | R.W. = Relative Wirksamkeit, bezogen auf Chinidin = 1,00 [1]: 2,02

CNCC(CCCN(C)CCc1ccccc1)c1ccccc1 (stereo not drawn) [Beispiel 28, 1-Methylamino-2-phenyl-5-(phenethyl)methylamino--pentan]
ED50 [1]: 11.6 mg/kg | R.W. = Relative Wirksamkeit, bezogen auf Chinidin = 1,00 [1]: 3,75

CNCC(CCCN(C)CCc1ccccc1)(c1ccccc1)C(C)C (stereo not drawn) [Beispiel 30, 1-Methylamino-2-isopropyl-2-phenyl-5-(phenethyl)methyl-amino-pentan-dihydrochlorid]
ED50 [1]: 11 mg/kg | Maximale Wirkung Δ % (Verlängerung der Aconitinfusionsdauer) [1]: 499% | R.W. = Relative Wirksamkeit, bezogen auf Chinidin = 1,00 [1]: 3,96 | MTD [2]: 215 mg/kg | selectivity ratio [2]: 42 | Toxizität Dosis (Ratte): 464 mg/kg

CNCC(CCCN(C)CCc1ccc(OC)c(OC)c1)(c1ccc(OC)c(OC)c1)C(C)C (stereo not drawn) [Beispiel 32, 1-Methylamino-2-isopropyl-2-(3,4-dimethoxyphenyl)-5--[(3,4-dimethoxyphenethyl)methylamino]-pentan-dihydrochlorid]
ED50 [1]: 33.8 mg/kg

CNCC(CCCN(C)CCc1ccc(OC)c(OC)c1)(c1cc(OC)c(OC)c(OC)c1)C(C)C (stereo not drawn) [Beispiel 33, 1-Methylamino-2-isopropyl-2-(3,4,5-trimethoxyphenyl)--5-[(3,4-dimethoxyphenethyl)methylamino]-pentan-dihydrochlorid]
ED50 [1]: 21.5 mg/kg | R.W. = Relative Wirksamkeit, bezogen auf Chinidin = 1,00 [1]: 2,02

CN(C)CC(CCCN(C)CCc1ccccc1)c1ccccc1 (stereo not drawn) [Beispiel 34, 1-Dimethylamino-2-phenyl-5-(phenethyl)methylamino--pentan]
ED50 [1]: 14.7 mg/kg | R.W. = Relative Wirksamkeit, bezogen auf Chinidin = 1,00 [1]: 2,96

CN(C)CC(C)(CCCN(C)CCc1ccccc1)c1ccccc1 (stereo not drawn) [Beispiel 35, 1-Dimethylamino-2-methyl-2-phenyl-5-(phenethyl)-methyl-amino-pentan]
ED50 [1]: 8.02 mg/kg | R.W. = Relative Wirksamkeit, bezogen auf Chinidin = 1,00 [1]: 5,42

CCCCC(CCCN(C)CCc1ccccc1)(CN(C)C)c1ccccc1 (stereo not drawn) [Beispiel 36, 1-Dimethylamino-2-(n-butyl)-2-phenyl-5-(phenethyl)--methylamino-pentan]
ED50 [1]: 8.66 mg/kg | R.W. = Relative Wirksamkeit, bezogen auf Chinidin = 1,00 [1]: 5,02

CC(C)C(CCCN(C)CCc1ccccc1)(CN(C)C)c1ccccc1 (stereo not drawn) [Beispiel 37, 1-Dimethylamino-2-isopropyl-2-phenyl-5-(phenethyl)--methylamino-pentan-dihydrochlorid]
ED50 [1]: 7.99 mg/kg | Maximale Wirkung Δ % (Verlängerung der Aconitinfusionsdauer) [1]: 423% | R.W. = Relative Wirksamkeit, bezogen auf Chinidin = 1,00 [1]: 5,44 | MTD [2]: 46.4 mg/kg | selectivity ratio [2]: 13 | Toxizität Dosis (Ratte): 100 mg/kg

COc1ccc(CCN(C)CCCC(CN(C)C)(c2ccc(OC)c(OC)c2)C(C)C)cc1OC (stereo not drawn) [Beispiel 38, 1-Dimethylamino-2-isopropyl-2-(3,4-dimethoxyphenyl)--5-[(3,4-dimethoxyphenethyl)methylamino]-pentan-dihydrochlorid]
ED50 [1]: 27.8 mg/kg | R.W. = Relative Wirksamkeit, bezogen auf Chinidin = 1,00 [1]: 1,57

CCCCCCCCCCCCC(CCCN(C)CCc1ccccc1)(CN(C)C)c1ccccc1 (stereo not drawn) [Beispiel 40, 1-Dimethylamino-2-(n-dodecyl)-2-phenyl-5-(phenethyl)methylamino-pentan]
ED50 [1]: 6.88 mg/kg | R.W. = Relative Wirksamkeit, bezogen auf Chinidin = 1,00 [1]: 6,32

C=CC1CN2CCC1CC2C(O)c1ccnc2ccc(OC)cc12 (stereo not drawn) [Chinidin, reference compound]
ED50 [1]: 43.5 mg/kg | Maximale Wirkung Δ % (Verlängerung der Aconitinfusionsdauer) [1]: 129% | R.W. = Relative Wirksamkeit, bezogen auf Chinidin = 1,00 [1]: ≡ 1,00 | Toxizität Dosis (Ratte): 464 mg/kg | Q = Toxische Dosis / ED 50 % (Ratte; therapeutic width): ll
